Target: T1, T. cruzi CYP51 (Trypanosoma cruzi, UniProt Q7Z1V1)
T1 construct: had the first 21 residues upstream of K22 replaced with the fragment MAKKKKK; His6 (C); made in house
Assay: HTS spectral-mode binding screen, type II difference spectra scored 0-5
Conditions: spectral mode, four serial dilutions 2 µM to 12.5 µM, 2 µM CYP51

T1 sequence (Q7Z1V1 15-481, looked up, natural form): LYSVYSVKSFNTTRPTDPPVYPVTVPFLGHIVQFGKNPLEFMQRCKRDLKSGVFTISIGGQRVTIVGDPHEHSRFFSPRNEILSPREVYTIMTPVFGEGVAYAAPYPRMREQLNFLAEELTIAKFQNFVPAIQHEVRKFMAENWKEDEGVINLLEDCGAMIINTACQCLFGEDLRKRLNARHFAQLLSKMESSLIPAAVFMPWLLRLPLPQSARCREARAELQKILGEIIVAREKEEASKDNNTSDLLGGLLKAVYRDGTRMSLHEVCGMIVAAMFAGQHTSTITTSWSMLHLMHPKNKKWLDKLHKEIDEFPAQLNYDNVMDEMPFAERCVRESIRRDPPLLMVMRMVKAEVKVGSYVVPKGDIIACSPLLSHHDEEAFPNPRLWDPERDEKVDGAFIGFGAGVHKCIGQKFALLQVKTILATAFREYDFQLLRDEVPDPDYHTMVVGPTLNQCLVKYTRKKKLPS

Row | SMILES | HTS binding score
1 | O=C(NCc1cccnc1)c1cc2nc(-c3ccco3)cc(C(F)(F)Cl)n2n1 [Compound 143] | 5
2 | Cc1ccc(NC(=O)C23CC4CC(C2)CC(n2cncn2)(C4)C3)c(C)c1 [Compound 111] | 5
3 | Cc1ccc(Sc2c(C(=O)NCc3cccnc3)[nH]c3ccccc23)cc1 [Compound 123] | 4
4 | CCc1cc2c(cc3c(=O)n(CC(=O)NCc4cccnc4)ncn32)s1 [Compound 118] | 4
5 | Cc1cc(Cl)ccc1OCCCC(=O)NCc1cccnc1 [Compound 77] | 4
6 | CC1=C(C(=O)Nc2ccccc2)C(c2cccnc2)C(C#N)=C(SCC(=O)Nc2ccc(F)cc2)N1 (centres unmarked) [Compound 184] | 5
7 | O=C(c1ccncc1)N(Cc1ccccc1)Cc1ccccc1 [Compound 61] | 4
8 | O=C(NCCCn1ccnc1)c1ccccc1Br [Compound 66] | 4
9 | O=C(CCCSc1nc(-c2ccco2)cc(C(F)(F)F)n1)NCc1ccncc1 [Compound 156] | 4
10 | Cc1n[nH]c(C)c1CCc1nc2c3ccccc3nc(NCc3cccnc3)n2n1 [Compound 140] | 5
11 | Nc1cc(NC(=O)c2cccc(Cl)c2)cc(Oc2cccnc2)c1 [Compound 100] | 4
12 | COCc1cc(C)nc2c1C(=O)NC(c1cccnc1)N2Cc1ccccc1 (centres unmarked) [Compound 124] | 4
13 | CCOC(=O)c1cc(-c2ccc(C)cc2)n(CCC(=O)NCc2cccnc2)c1C [Compound 146] | 5
14 | O=C(NCc1cccnc1)/C(=C\c1cccc(Oc2ccccc2)c1)S(=O)(=O)c1ccccc1 [Compound 178] | 4
15 | CC(C)c1nnc(N2C(=O)c3oc4ccccc4c(=O)c3C2c2cccnc2)s1 (centres unmarked) [Compound 144] | 4
16 | Cc1nnc(NCc2cccnc2)c2c1nnn2Cc1ccc(F)cc1 [Compound 109] | 5
17 | O=C1C2(c3ccccc3)CN3CC1(c1ccccc1)CN(C2)C3c1cccnc1 (centres unmarked) [Compound 130] | 4
18 | O=S(=O)(Nc1ccc(Cc2ccncc2)cc1)c1ccc(Br)cc1 [Compound 142] | 4
19 | CCOC(=O)C1=C(C)N(C)C(C)=C(C(=O)OCC)C1c1ccncc1 [Compound 104] | 5
20 | CCCCNC(=O)c1cc(-c2ccncc2)nc2ccccc12 [Compound 63] | 5
21 | Cc1c(C(=O)Nc2ccncc2)sc2nc(-c3ccccc3)cn12 [Compound 92] | 4
22 | O=C(NCc1cccnc1)c1ccc(COc2ccccc2Cl)o1 [Compound 103] | 4

Row | SMILES | HTS binding score
23 | Cc1ccc(S(=O)(=O)N(CC(=O)Nc2cccnc2)c2cccc(C(F)(F)F)c2)cc1 [Compound 172] | 4
24 | Cc1sc2nc(SCC(=O)NCCCn3ccnc3)nc(O)c2c1C [Compound 127] | 4
25 | COc1cc(OC)cc(C(=O)Nc2ccc(Cc3ccncc3)cc2)c1 [Compound 108] | 4
26 | COc1ccc(-c2nc3n(n2)C(c2cccnc2)C2=C(O)CCCC2=N3)cc1 (centres unmarked) [Compound 122] | 5
27 | O=c1c2cnn(-c3ccc(Cl)cc3)c2ncn1Cc1cccnc1 [Compound 98] | 5
28 | O=C(/C(=C/c1ccc(F)cc1)n1cncn1)c1ccc(Cl)cc1Cl [Compound 116] | 4
29 | O=S(=O)(NCc1csc(-c2cccnc2)n1)c1ccc(Br)cc1 [Compound 149] | 5
30 | Cc1[nH]c2ccccc2c1C(Nc1ccc(F)cc1)c1ccncc1 (centres unmarked) [Compound 87] | 4
31 | N#CC1=C(N)Oc2nc(SCc3ccc(Cl)cc3)nc(N)c2C1c1cccnc1 (centres unmarked) [Compound 158] | 4
32 | COC(=O)c1sccc1NC(=O)CSCCc1ccncc1 [Compound 96] | 4
33 | N#Cc1nc(COc2ccccc2)oc1NCCCn1ccnc1 [Compound 81] | 4
34 | Cc1coc(NC(=O)c2sc3nc(-c4ccncc4)cc(C(F)(F)F)c3c2N)n1 [Compound 153] | 4
35 | Cc1ccc(Cl)cc1-n1ncc2c(NCc3cccnc3)ncnc21 [Compound 112] | 4
36 | O=S(=O)(c1ccc(-c2csc(-c3cccnc3)n2)cc1)N1CCCC1 [Compound 121] | 4
37 | O=C(NCCc1ccncc1)Nc1ccc(Cl)c(Cl)c1 [Compound 70] | 4
38 | O=C(c1cc(-c2ccncc2)nc2ccccc12)N1CCCCC1 [Compound 76] | 5
39 | CCCC/N=C(\S)N1CCn2cccc2C1c1cccnc1 (centres unmarked) [Compound 74] | 4
40 | O=C(NCCCn1ccnc1)C1CC(c2cccc(Br)c2)=NO1 (centres unmarked) [Compound 126] | 4
41 | COc1ccc2nc3oc(C(=O)NCc4cccnc4)cc3cc2c1 [Compound 90] | 5
42 | COc1cccc(CNCc2cccnc2)c1OCc1ccc(Cl)cc1 [Compound 120] | 4
43 | CN1C(=O)c2[nH]nc(-c3ccc(F)cc3)c2C1c1cccnc1 (centres unmarked) [Compound 67] | 5
44 | COC(=O)C1=C(N)Oc2cc(C)n(CCCn3ccnc3)c(=O)c2C1c1ccc(Cl)cc1 (centres unmarked) [Compound 175] | 4

Row | SMILES | HTS binding score
45 | O=C(Cn1nc(-c2ccc(Cl)cc2)c2ccccc2c1=O)NCc1cccnc1 [Compound 145] | 4
46 | CC1=NN(C(=O)COc2ccccc2C)C(O)(c2cccnc2)C1 (centres unmarked) [Compound 83] | 4
47 | Cn1c(SCc2nc(-c3ccc(Cl)cc3)no2)nnc1-c1ccncc1 [Compound 134] | 5
48 | CCOC(=O)c1c(C)n(-c2ccc(C)cc2)c2ccc(OCC(O)Cn3ccnc3)cc12 (centres unmarked) [Compound 165] | 4
49 | O=C(NCc1ccncc1)C(Sc1ccccc1)c1ccccc1 (centres unmarked) [Compound 93] | 4
50 | O=C(CSCc1c(Cl)cccc1Cl)NCc1cccnc1 [Compound 102] | 4
51 | CCC(C)(C)c1ccc(OCC(=O)Nc2ccncc2)cc1 [Compound 58] | 4
52 | O=C(CN(c1ccc(Cl)cc1Cl)S(=O)(=O)c1ccccc1)NCc1ccncc1 [Compound 173] | 4
53 | CC1=C(C(=O)Nc2ccc(F)cc2F)C(c2cccnc2)C2=C(O)CC(C)(C)CC2=N1 (centres unmarked) [Compound 159] | 4
54 | Cc1cc(Cl)ccc1OCCCC(=O)NCc1ccncc1 [Compound 78] | 4
55 | O=C(c1ccc(Cl)cc1Cl)C(c1cccnc1)C(O)C(Cl)(Cl)Cl (centres unmarked) [Compound 151] | 5
56 | COc1ccc(-c2noc(CSc3nnc(-c4ccncc4)n3CC(C)C)n2)cc1OC [Compound 174] | 4
57 | COc1ccc(CNc2nc(-c3cccnc3)nn2S(=O)(=O)c2ccccc2)cc1 [Compound 154] | 4
58 | COc1ccc(S(=O)(=O)NC(C)c2ccc(-n3ccnc3)cc2)c2ccccc12 (centres unmarked) [Compound 147] | 4
59 | CCO/C(O)=C1/C(C)=NC2=C(C(=O)CC(c3ccccc3)C2)C1c1cccnc1 (centres unmarked) [Compound 136] | 4
60 | O=C(CNCc1cccnc1)Nc1ccc(OC(F)(F)F)cc1 [Compound 82] | 4
61 | COc1ccc(NC(=O)Nc2ccc(Cc3ccncc3)cc2)cc1 [Compound 91] | 5
62 | Cc1ccccc1CSCc1ccc(C(=O)NCc2cccnc2)o1 [Compound 113] | 4
63 | COc1ccc(-c2cc(C(=O)NCc3cccnc3)[nH]n2)cc1 [Compound 68] | 4
64 | CC1=C(C(=O)OC2CCCC2)C(c2ccncc2)C2=C(O)CC(C)(C)CC2=N1 (centres unmarked) [Compound 129] | 4
65 | OC1=C2C(=Nc3nc(-c4cccnc4)nn3C2c2ccc(Cl)cc2)CCC1 (centres unmarked) [Compound 128] | 4
66 | N=C(NOC(=O)/C=C/c1ccccc1Cl)c1ccncc1 [Compound 60] | 4

Row | SMILES | HTS binding score
67 | Cc1[nH]c2ccccc2c1C(Nc1cccc(F)c1)c1cccnc1 (centres unmarked) [Compound 88] | 4
68 | Cc1cc(Cl)ccc1OCCCC(=O)Nc1cccnc1 [Compound 62] | 4
69 | COc1ccccc1C(=O)O/N=C(\c1ccccc1)c1ccncc1 [Compound 89] | 4
70 | O=C(NCc1cccnc1)c1cc2c(=O)oc3ccccc3c2s1 [Compound 95] | 5
71 | N=C(NOS(=O)(=O)c1ccc(Cl)cc1)c1ccncc1 [Compound 71] | 5
72 | COc1ccc(-c2nc(CSCC(=O)NCc3cccnc3)c(C)o2)cc1 [Compound 133] | 4
73 | Cc1c(C(=O)N2CCCCC2c2cccnc2)sc2nc3n(c(=O)c12)CCCCC3 (centres unmarked) [Compound 157] | 4
74 | O=C(c1ccncc1)N(c1ccc2oc3c(c2c1)CCCC3)S(=O)(=O)c1cccs1 [Compound 167] | 4
75 | CC(C)N(CCc1ccncc1)/C(S)=N/C1CCCCC1 [Compound 64] | 5
76 | CC1Cc2cc(C(=O)C3=C(O)C(=O)N(Cc4cccnc4)C3c3cccs3)ccc2O1 (centres unmarked) [Compound 164] | 4
77 | C=CCOc1ccc(C2c3c(-c4ccccc4O)n[nH]c3C(=O)N2Cc2ccncc2)cc1OCC (centres unmarked) [Compound 181] | 5
78 | CCN(Cc1ccncc1)/C(S)=N/CCc1ccccc1 [Compound 59] | 5
79 | C/C(=N\OC(=O)c1c(-c2ccccc2Cl)noc1C)c1ccncc1 [Compound 115] | 5
80 | O=C(Nc1ccc(F)cc1)c1ccc2c(c1)C(=O)N(Cc1cccnc1)C2=O [Compound 125] | 4
81 | c1ccc(-c2cc(NCCCn3ccnc3)n3c(n2)nc2ccccc23)cc1 [Compound 119] | 4
82 | COc1cc(NS(=O)(=O)c2ccc(Nc3nc(-c4cccnc4)cs3)cc2)nc(OC)n1 [Compound 177] | 4
83 | COc1cccc(C2C(C(=O)Nc3cccnc3)=C(C)Nc3nc(-c4cccc(C)c4)nn32)c1OC (centres unmarked) [Compound 182] | 4
84 | CC1=C(C(=O)Nc2cccnc2)C(c2cccc(O)c2)n2nc(SCc3ccccc3)nc2N1 (centres unmarked) [Compound 179] | 4
85 | CCOc1cc(S(=O)(=O)Nc2cccnc2)ccc1Cl [Compound 72] | 4
86 | C=CCn1c(=O)c(C(=O)NCc2ccncc2)c(O)c2ccccc21 [Compound 94] | 4

Source: publication PMC3409115, “Diverse Inhibitor Chemotypes Targeting Trypanosoma cruzi CYP51” (PLoS Neglected Tropical Diseases, 2012)
